Data from patent US20230271965A1, “BICYCLIC HETEROARENES AND METHODS OF THEIR USE” (Kineta, Inc., priority 2020, published 2023).

Tests used:
[1] = test system: PIKFYVE TDP-43 yeast strain; test: Propidium iodide viability assay, PIKFYVE TDP-43 yeast strain; type: cell-based; details: 0.23 μM, FIG. 6
Source text: Generation of TDP-43 yeast model expressing human PIKfyve. Human PIKFYVE (“entry clone”) was cloned into pAG416GPDccdB (“destination vector”) according to standard Gateway cloning protocols (Invitrogen, Life Technologies). The resulting pAG416GPD-PIKFYVE plasmids were amplified in E. coli and plasmid identity confirmed by restriction digest and Sanger sequencing. Lithium acetate/polyethylene glycol-based transformation was used to introduce the above PIKFYVE plasmid into a BY4741 yeast strain auxotrophic for the ura3 gene and deleted for two transcription factors that regulate the xenobiotic efflux pumps, a major efflux pump, and FAB1, the yeast ortholog of PIKFYVE (MATa, snq2::KILeu2; pdr3::KIura3; pdr1::NATMX; fab1::G418^R, his3; leu2; ura3; met15; LYS2+) (FIG. 2).
Transformed yeast were plated on solid agar plates with complete synthetic media lacking uracil (CSM-ura) and containing 2% glucose. Individual colonies harboring the control or PIKFYVE TDP-43 plasmids were recovered. A plasmid containing wild-type TDP-43 under the transcriptional control of the GAL1 promoter and containing the hygromycin-resistance gene as a selectable marker was transformed into the fab1::G418^R pAG416GPD-PIKFYVE yeast strain (FIG. 1). Transformed yeast were plated on CSM-ura containing 2% glucose and […] after overnight recovery in media lacking antibiotic. Multiple independent isolates were further evaluated for cytotoxicity and TDP-43 expression levels.
Viability Assay. A control yeast strain with the wild-type yeast FAB1 gene and TDP-43 (“FAB1 TDP-43”, carries empty pAG416 plasmid), and the “PIKFYVE TDP-43” yeast strain, were assessed for toxicity using a propidium iodide viability assay. Both yeast strains were transferred from solid CSM-ura/2% glucose agar plates into 3 mL of liquid CSM-ura/2% glucose media for 6-8 hours at 30° C. with aeration. Yeast cultures were then diluted to an optical density at 600 nm wavelength (OD600) of 0.005 in 3 mL of CSM-ura/2% raffinose and grown overnight at 30° C. with aeration to an OD600 of 0.3-0.8. Log-phase overnight cultures were diluted to OD600 of 0.005 in CSM-ura containing either 2% raffinose or galactose and 150 μL dispensed into each well of a flat bottom 96-well plates. Compounds formulated in 100% dimethyl sulfoxide (DMSO) were serially diluted in DMSO and 1.5 μL diluted compound transferred to the 96-well plates using a multichannel pipet. Wells containing DMSO alone were also evaluated as controls for compound effects. Tested concentrations ranged from 15 μM to […]. Cultures were immediately mixed to ensure compound distribution and covered plates incubated at 30° C. for 24 hours in a stationary, humified incubator.
Upon the completion of incubation, cultures were assayed for viability using propidium iodide (PI) to stain for dead/dying cells. A working solution of PI was made where, for each plate, 1 μL of 10 mM PI was added to 10 mL of CSM-ura (raffinose or galactose). The final PI solution (50 μL/well) was dispensed into each well of a new round bottom 96-well plate. The overnight 96-well assay plate was then mixed with a multichannel pipet and 50 μL transferred to the PI-containing plate. This plate was then incubated for 30 minutes at 30° C. in the dark. A benchtop flow cytometer (Miltenyi MACSquant) was then used to assess red fluorescence ([…]), forward scatter, and side scatter (with following settings: gentle mix, high flow rate, fast measurement, 10,000 events). Intensity histograms were then gated for “PI-positive” or “PI-negative” using the raffinose and galactose cultures treated with DMSO as controls. The DMSO controls for raffinose or galactose-containing cultures were used to determine the window of increased cell death and this difference set to 100. All compounds were similarly gated and then compared to this maximal window to establish the percent reduction in PI-positive cells.

[2] = test system: PIKFYVE TDP-43 yeast strain; test: as above; type: cell-based; details: concentrations ranging from 0.5 mM to less than 100 nM
FAB1 TDP-43 yeast strain = test: Propidium iodide viability assay, control FAB1 TDP-43 yeast strain; type: cell-based; details: across a range of compound concentrations (only 0.23 μM is shown), FIG. 5
Experimental: Generation of TDP-43 yeast model expressing human PIKfyve. Human PIKFYVE (“entry clone”) was cloned into pAG416GPDccdB (“destination vector”) according to standard Gateway cloning protocols (Invitrogen, Life Technologies). The resulting pAG416GPD-PIKFYVE plasmids were amplified in E. coli and plasmid identity confirmed by restriction digest and Sanger sequencing. […]
Transformed yeast were plated on solid agar plates with complete synthetic media lacking uracil (CSM-ura) and containing 2% glucose. […] Multiple independent isolates were further evaluated for cytotoxicity and TDP-43 expression levels.
Viability Assay. A control yeast strain with the wild-type yeast FAB1 gene and TDP-43 (“FAB1 TDP-43”, carries empty pAG416 plasmid), and the “PIKFYVE TDP-43” yeast strain, were assessed for toxicity using a propidium iodide viability assay. […] Wells containing DMSO alone were also evaluated as controls for compound effects. […]
Upon the completion of incubation, cultures were assayed for viability using propidium iodide (PI) to stain for dead/dying cells. […] A benchtop flow cytometer (Miltenyi MACSquant) was then used to assess red fluorescence ([…]), forward scatter, and side scatter (with following settings: gentle mix, high flow rate, fast measurement, 10,000 events). […]

[3] = molecular target: T1, PIKfyve (PIKFYVE-NanoLuc fusion in HEK293 cells) (Homo sapiens, UniProt Q9Y2I7); test: NanoBRET TE Intracellular Kinase Assay, K-8 (Promega) cell-based assay; details: 2 hours, read-out: hPIKfyve BRET IC50
T1 construct: containing a full-length PIKfyve according to manufacturer's specifications; host or cells: HEK293
T1 sequence (Q9Y2I7 whole entry, the tested form may be a part): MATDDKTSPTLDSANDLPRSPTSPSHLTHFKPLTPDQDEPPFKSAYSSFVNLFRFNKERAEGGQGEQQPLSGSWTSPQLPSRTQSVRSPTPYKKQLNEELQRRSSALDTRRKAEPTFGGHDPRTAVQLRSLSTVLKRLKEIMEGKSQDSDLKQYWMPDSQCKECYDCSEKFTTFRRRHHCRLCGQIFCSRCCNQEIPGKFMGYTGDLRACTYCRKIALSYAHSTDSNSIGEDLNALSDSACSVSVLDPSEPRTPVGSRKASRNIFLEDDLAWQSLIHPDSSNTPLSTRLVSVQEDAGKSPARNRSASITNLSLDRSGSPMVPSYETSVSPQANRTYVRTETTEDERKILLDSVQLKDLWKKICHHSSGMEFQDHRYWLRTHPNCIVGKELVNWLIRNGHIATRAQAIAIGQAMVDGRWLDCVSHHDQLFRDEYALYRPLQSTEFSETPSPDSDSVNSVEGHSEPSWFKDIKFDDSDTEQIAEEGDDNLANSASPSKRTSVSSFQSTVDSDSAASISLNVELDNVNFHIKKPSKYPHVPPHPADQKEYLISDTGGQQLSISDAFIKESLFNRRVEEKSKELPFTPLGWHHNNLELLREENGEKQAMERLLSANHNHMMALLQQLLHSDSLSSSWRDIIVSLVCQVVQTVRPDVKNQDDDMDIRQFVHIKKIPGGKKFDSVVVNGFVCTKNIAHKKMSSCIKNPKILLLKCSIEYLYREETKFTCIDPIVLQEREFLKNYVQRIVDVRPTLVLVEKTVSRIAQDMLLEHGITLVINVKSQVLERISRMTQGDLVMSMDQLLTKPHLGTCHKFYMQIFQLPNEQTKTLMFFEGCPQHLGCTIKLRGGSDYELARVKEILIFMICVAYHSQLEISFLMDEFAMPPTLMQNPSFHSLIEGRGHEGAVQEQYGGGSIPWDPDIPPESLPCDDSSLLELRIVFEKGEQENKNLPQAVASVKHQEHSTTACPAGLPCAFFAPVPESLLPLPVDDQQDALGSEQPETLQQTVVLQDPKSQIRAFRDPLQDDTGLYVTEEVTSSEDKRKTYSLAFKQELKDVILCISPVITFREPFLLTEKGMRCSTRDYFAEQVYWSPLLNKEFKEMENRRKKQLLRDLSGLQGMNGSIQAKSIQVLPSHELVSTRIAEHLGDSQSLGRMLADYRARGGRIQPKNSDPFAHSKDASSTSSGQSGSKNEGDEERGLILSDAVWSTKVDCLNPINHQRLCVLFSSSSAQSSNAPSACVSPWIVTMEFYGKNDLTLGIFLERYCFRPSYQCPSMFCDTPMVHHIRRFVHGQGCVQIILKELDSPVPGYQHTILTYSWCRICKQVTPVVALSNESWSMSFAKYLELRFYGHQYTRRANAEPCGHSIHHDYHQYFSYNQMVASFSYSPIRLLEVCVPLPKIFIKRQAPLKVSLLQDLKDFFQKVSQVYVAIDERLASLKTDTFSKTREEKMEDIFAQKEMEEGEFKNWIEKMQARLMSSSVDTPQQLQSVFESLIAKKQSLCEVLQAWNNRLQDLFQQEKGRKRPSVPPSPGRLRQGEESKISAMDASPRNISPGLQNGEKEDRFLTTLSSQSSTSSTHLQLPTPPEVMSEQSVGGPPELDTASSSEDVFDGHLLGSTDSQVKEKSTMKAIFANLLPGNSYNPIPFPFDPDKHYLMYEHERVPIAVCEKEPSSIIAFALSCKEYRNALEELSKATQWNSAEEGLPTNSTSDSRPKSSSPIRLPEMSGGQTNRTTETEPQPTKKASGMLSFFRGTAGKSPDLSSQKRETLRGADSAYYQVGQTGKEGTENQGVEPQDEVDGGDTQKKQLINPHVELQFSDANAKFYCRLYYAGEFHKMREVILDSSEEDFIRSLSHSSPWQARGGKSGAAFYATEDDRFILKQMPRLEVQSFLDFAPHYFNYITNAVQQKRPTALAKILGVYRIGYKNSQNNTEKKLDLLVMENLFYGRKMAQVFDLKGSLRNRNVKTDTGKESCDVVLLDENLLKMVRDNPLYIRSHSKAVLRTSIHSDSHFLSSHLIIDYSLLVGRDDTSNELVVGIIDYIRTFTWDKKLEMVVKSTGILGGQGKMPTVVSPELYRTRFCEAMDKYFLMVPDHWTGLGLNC
Experimental: NanoBRET™ TE Intracellular Kinase Assay, K-8 (Promega) Cell-Based Assay. Intracellular inhibition of PIKfyve was assayed using Promega's NanoBRET™ TE Intracellular Kinase Assay, K-8 according to manufacturer's instructions. A dilution series of test compounds was added for 2 hours to HEK293 cells transfected for a minimum of 20 hours with PIKFYVE-NanoLuc® Fusion Vector (Promega) containing a full-length PIKfyve according to manufacturer's specifications in a 96-well plate. Kinase activity was detected by addition of a NanoBRET™ tracer reagent, which was a proprietary PIKfyve inhibitor appended to a fluorescent probe (BRET, bioluminescence resonance energy transfer). Test compounds were tested at concentrations of 10, 3, 1, 0.3, 0.1, 0.03, 0.01, 0.003 μM. BRET signals were measured by a GloMax® Discover Multimode Microplate Reader (Promega) using 0.3 sec/well integration time, 450BP donor filter and 600LP acceptor filters. Active test compounds that bound PIKfyve and displaced the tracer reduced BRET signal. IC50 values were then calculated by fitting the data to the normalized BRET ratio.

[4] = molecular target: T2, full-length human PIKFYVE (GST-PIKFYVE) (Homo sapiens, UniProt Q9Y2I7, L932S/Q1183K/Q995L/S1033A/S696N/T998S); test: PIKfyve biochemical assay (ADP-Glo Kinase assay, Carna Biosciences); details: ADP-Glo, full-length human PIKFYVE; read-out: hPIKfyve IC50
T2 construct: A full-length human PIKFYVE [1-2098 (end) amino acids; purchased Carna Biosciences; host or cells: baculovirus expression system
T2 sequence (Q9Y2I7 whole entry S696N/L932S/Q995L/T998S/S1033A/Q1183K): as the sequence (Q9Y2I7 whole entry, the tested form may be a part) above, with S696N, L932S, Q995L, T998S, S1033A, Q1183K counted along it
Experimental: PIKfyve Biochemical Assay. The biochemical PIKFyve inhibition assays were run by Carna Biosciences according to proprietary methodology based on the Promega ADP-Glo™ Kinase assay. […] GST-PIKFYVE was purified by using glutathione sepharose chromatography and used in an ADP-Glo™ Kinase assay (Promega). Reactions were set up by adding the test compound solution, substrate solution, ATP solution and kinase solution, each at 4×final concentrations. Reactions were prepared with assay buffer (50 mM MOPS, 1 mM DTT, pH7.2), mixed, and incubated in black 384 well polystyrene plates for 1 hour at room temperature. ADP-Glo™ reagent was then added for 40 minutes, followed by kinase detection reagent for an additional 40 minutes. The kinase activity was evaluated by detecting relative light units on a luminescence plate reader. Samples were run in duplicate from 10 μM to 3 nM. […] IC50 values were calculated from concentration vs % inhibition curves by fitting to a four-parameter logistic curve.
The biochemical PIKFyve inhibition assays were run by Carna Biosciences according to proprietary methodology based on the Promega ADP-Glo™ Kinase assay. […] GST-PIKFYVE was purified by using glutathione sepharose chromatography and used in an ADP-Glo™ Kinase assay (Promega).
Reactions were set up by adding the test compound solution, substrate solution, ATP solution and kinase solution, each at 4×final concentrations. Reactions were prepared with assay buffer (50 mM MOPS, 1 mM DTT, pH7.2), mixed, and incubated in black 384 well polystyrene plates for 1 hour at room temperature. ADP-Glo™ reagent was then added for 40 minutes, followed by kinase detection reagent for an additional 40 minutes. The kinase activity was evaluated by detecting relative light units on a luminescence plate reader. Samples were run in duplicate from 10 uM to 3 nM. […] IC50 values were calculated from concentration vs % inhibition curves by fitting to a four-parameter logistic curve.

Structure (SMILES)	IC50 [3] [nM]	IC50 [4] [nM]	other results
Cc1cccc(/C=N/Nc2cc(N3CCOCC3)n3nc(-c4ccncc4)cc3n2)c1 [APY0201]			population of propidium iodide-positive dead cells in PIKFYVE TDP-43 [1]: reduced the population of propidium iodide-positive dead cells; viability in PIKFYVE TDP-43 model [2]: increased viability; increase in viable cells in FAB1 TDP-43 (FAB1 TDP-43 yeast strain): no increase in viable cells
c1ccc(N2CCc3c(OCc4cccnn4)nc(N4CCOCC4)nc32)cc1 [Compound 5]	100 to 1000		
c1cncc(N2CCc3c(OCCC4CCCO4)nc(N4CCOCC4)nc32)c1 (centres unmarked) [Compound 10]	100 to 1000	< 10	
COc1nc(N2CCOCC2)nc2c1CCN2c1ccccc1 [Compound 16, 4-(4-methoxy-7-phenyl-6,7-dihydro-5H-pyrrolo[2,3-d]pyrimidin-2-yl)morpholine]	100 to 1000		
N#Cc1ccc(N2CCc3c(OCc4cccnc4)nc(N4CCOCC4)nc32)cc1 [Compound 21, 4-(2-morpholino-4-(pyridin-3-ylmethoxy)-5H-pyrrolo[2,3-d]pyrimidin-7(6H)-yl)benzonitrile]	100 to 1000		
c1ccc(N2CCc3c(Oc4cccnc4)nc(N4CCOCC4)nc32)cc1 [Compound 22, 4-(7-phenyl-4-(pyridin-3-yloxy)-6,7-dihydro-5H-pyrrolo[2,3-d]pyrimidin-2-yl)morpholine]	100 to 1000	< 10	
c1cncc(Oc2nc(N3CCOCC3)nc3c2CCN3c2cccnc2)c1 [Compound 24, 4-(7-(pyridin-3-yl)-4-(pyridin-3-yloxy)-6,7-dihydro-5H-pyrrolo[2,3-d]pyrimidin-2-yl)morpholine]	1000 to 10000	10 to 100	
OCC(O)COc1nc(N2CCOCC2)nc2c1CCN2c1ccccc1 (centres unmarked) [Compound 25, 3-((2-morpholino-7-phenyl-6,7-dihydro-5H-pyrrolo[2,3-d]pyrimidin-4-yl)oxy)propane-1,2-diol]	100 to 1000		
c1ccc(N2CCc3c(-c4ccncc4)nc(N4CCOCC4)nc32)cc1 [Compound 41, 4-(7-phenyl-4-(pyridin-4-yl)-6,7-dihydro-5H-pyrrolo[2,3-d]pyrimidin-2-yl)morpholine]	10 to 100	< 10	
CN1CCC(COc2nc(N3CCOCC3)nc3c2CCN3c2cccnc2)CC1 [Compound 111]	1000 to 10000	100 to 1000	
